In data set [1] the test system is Alternaria solani. The data set can be described thus: Test B: tomato early blight, preventive spray on tomato seedlings, visual disease rating. To be noted: tomato early blight, 100 = 100% disease control; for Test B rating (disease control): 0 = no disease control relative to the controls.
The nature of data set [2]: Single oral dose pharmacokinetics in rats, plasma and fat by LC/MS (fat:plasma distribution). Type of data set: in vivo. To be noted: single oral dose via gavage, compared to corresponding compounds wherein R^2 is other than H. As to the method:
The pharmacokinetic properties of compounds of Formula 1 can be measured using a wide variety of assay protocols known in the science of pharmacology. In one illustrative method involving a single oral dose, three male and three female rats receive a single dose of a test substance via oral gavage. Approximately 0.25 mL of blood is collected via tail vein immediately prior to dosing, and then at 0.25, 0.5, 1, 2, 4, 8, 12, 24 h and every 24 h thereafter until sacrifice. At sacrifice, fat is also collected to determine the fat:plasma ratio at sacrifice. Blood is collected into tubes that contain ethylenediaminetetracetic acid (EDTA) and centrifuged at 2500×g in order to separate plasma from blood cells. The plasma is then extracted by protein precipitation using, for example, acetonitrile and a protein precipitation plate (e.g., Strata Impact Protein Precipitation Plate, part number CEO-7565 of Phenomenex, Torrance, Calif., U.S.A.) following directions provided for the plate. Alternatively, the plasma is extracted just with acetonitrile, vortexed (i.e. mixed using a vortex mixer), and centrifuged to pellet the proteins. After removal of the proteins, the plasma is analyzed for parent compound and/or metabolites by liquid chromatography-mass spectrometry (LC/MS). The fat is homogenized and extracted by an organic solvent such as acetonitrile. The extract is then analyzed for parent compound and/or metabolites by LC/MS. The plasma pharmacokinetic data is then analyzed using nonlinear modeling software (e.g., WinNonlin™ from Pharsight, Cary, N.C., U.S.A.) to determine half-life of the administered compound in plasma, the time after administration when the maximum plasma concentration is reached (Tmax), the maximum plasma concentration (Cmax) and the area under the plasma concentration curve (AUC). As analysis of fat requires rat sacrifice, fat data is obtained at single time points (i.e. the time of rat sacrifice). However, by using multiple rats sacrificed after different intervals from time of dosing, such parameters as Cmax for fat are determined.

Data set [3] has as its system Phytophthora infestans. The data set can be described thus: whole plant or invertebrate. The data set is classed as in vivo. Particulars: tomato late blight, 100 = 100% disease control; for Test C rating (disease control): 0 = no disease control relative to the controls.
Data set [4] relates to Puccinia recondita f. sp. tritici. The data set can be described thus: Test G: wheat leaf rust, spray after inoculation (curative) on wheat seedlings, visual disease rating. Particulars: spray after inoculation, 100 = 100% disease control, rating without asterisk. The data set is classed as in vivo. The source says: (§1) A hyphen (-) indicates no test results.
Data set [5] concerns Septoria nodorum. The data set can be described thus: Test E: Septoria glume blotch, preventive spray on wheat seedlings, visual disease rating. Particulars: 100 = 100% disease control; for Test E rating (disease control): Septoria glume blotch, 0 = no disease control relative to the controls.
Description: (§2) General protocol for preparing test suspensions for Tests A-I: the test compounds were first dissolved in acetone in an amount equal to 3% of the final volume and then suspended at the desired concentration (in ppm) in acetone and purified water (50/50 mix by volume) containing 250 ppm of the surfactant Trem® 014 (polyhydric alcohol esters). The resulting test suspensions were then used in Tests A-I. Each test was conducted in triplicate, and the results were averaged. Spraying a 200 ppm test suspension to the point of run-off on the test plants was the equivalent of a rate of about 800 g/ha. Unless otherwise indicated, the rating values indicate a 200 ppm test suspension was used. (An asterisk “*” next to the rating value indicates a 40 ppm test suspension was used.)
The test suspension was sprayed to the point of run-off on wheat seedlings. The following day the seedlings were inoculated with a spore suspension of Septoria nodorum (the causal agent of Septoria glume blotch) and incubated in a saturated atmosphere at 24° C. for 48 h, and then moved to a growth chamber at 20° C. for 9 days, after which time visual disease ratings were made.
The test system of data set [6] is Septoria tritici. The experiment in a line: Test F: wheat leaf blotch, preventive spray on wheat seedlings, visual disease rating. The data set is classed as in vivo. Particulars: 100 = 100% disease control, 0 = no disease control relative to the controls.
Description: as §1

For data set [7], the system named is Rhizoctonia solani. The experiment in a line: Test D: turf brown patch, preventive spray on creeping bent grass seedlings, disease rating. Particulars: 100 = 100% disease control, 0 = no disease control relative to the controls.
Description: as §2
The test suspension was sprayed to the point of run-off on creeping bent grass (Agrostis sp.) seedlings. The following day the seedlings were inoculated with a bran and mycelial slurry of Rhizoctonia solani (the causal agent of turf brown patch) and incubated in a saturated atmosphere at 27° C. for 48 h, and then moved to a growth chamber at 27° C. for 3 days, after which time disease ratings were made.
The test system of data set [8] is Puccinia recondita f. sp. tritici. The experiment in a line: Test H: wheat leaf rust, preventive spray on wheat seedlings, visual disease rating. Particulars: wheat leaf rust, sprayed the day before inoculation; 100 = 100% disease control, 0 = no disease control.
Description: as §2
The test suspension was sprayed to the point of run-off on wheat seedlings. The following day the seedlings were inoculated with a spore suspension of Puccinia recondita f. sp. tritici (the causal agent of wheat leaf rust) and incubated in a saturated atmosphere at 20° C. for 24 h, and then moved to a growth chamber at 20° C. for 6 days, after which time visual disease ratings were made.
For data set [9], the system named is Botrytis cinerea. The data set can be described thus: Test A: tomato Botrytis, preventive spray on tomato seedlings, visual disease rating. Particulars: tomato Botrytis; 100 = 100% disease control, 0 = no disease control relative to the controls.
Data set [10] relates to Blumeria graminis f. sp. tritici. The experiment in a line: Test I: wheat powdery mildew, preventive spray on wheat seedlings, visual disease rating. To be noted: wheat powdery mildew; 100 = 100% disease control, 0 = no disease control relative to the controls.
The mark [11] stands for this setting: preventive spray, rating without asterisk.

This note sets out measurements from patent US20170150719A1, “FUNGICIDAL PYRAZOLES AND THEIR MIXTURES” (E I DU PONT DE NEMOURS AND COMPANY, priority 2010, published 2017).

As usually defined, the melting point is the temperature of the solid-liquid transition. Regarding `Cc1nn(C)c(Nc2c(F)cccc2Cl)c1-c1ccc(F)cc1Cl` [Compound 239, 4-(2-chloro-4-fluorophenyl)-N-(2-chloro-6-fluorophenyl)-1,3-dimethyl-1H-pyrazol-5-amine], the melting point was in the range of 166 to 168 °C. Further, in [1] (setting [11]), the “Test B rating (% disease control)” value amounted to 100%. In addition, in data set [2], the distribution into fat result is recorded as “significantly diminished distribution into fat”. Further, the “Test C rating (% disease control)” value in data set [3] (setting [11]) stood at 0%. Further, the “Test G rating (% disease control)” value in data set [4] turned out to be 100%. The “Test E rating (% disease control)” value in data set [5] (Septoria glume blotch on wheat, preventive spray, rating without asterisk) is 99%.
For `Cc1nn(C)c(Nc2c(F)cccc2Cl)c1-c1ccc(F)cc1Br` [Compound 240, 4-(2-Bromo-4-fluorophenyl)-N-(2-chloro-6-fluorophenyl)-1,3-dimethyl-1H-pyrazol-5-amine], the distribution into fat result in data set [2] was “significantly diminished distribution into fat”.
The same measure, in the same setting: in the case of `Cc1nn(C)c(Nc2c(F)cccc2Br)c1-c1ccc(F)cc1Cl` [Compound 241, N-(2-bromo-6-fluorophenyl)-4-(2-chloro-4-fluorophenyl)-1,3-dimethyl-1H-pyrazol-5-amine] it was “significantly diminished distribution into fat”.
On to `Cc1nn(C)c(Nc2ccccc2F)c1-c1ccc(F)cc1Cl` [compound 1], for which the “Test B rating (disease control)” value in data set [1] stood at 93%. For the same molecule, in data set [6], the “Test F rating (disease control)” value is reported as 100%. Further, the “Test D rating (disease control)” value in data set [7] is given as 99%. Moreover, the “Test H rating (disease control)” value in data set [8] was determined as 99%. Also, in data set [9], the “Test A rating (disease control)” value is recorded as 99%. Moreover, in [3], the “Test C rating (disease control)” value stood at 0%. Moreover, the “Test E rating (disease control)” value in data set [5] worked out at 0%. Moreover, the “Test I rating (disease control)” value in data set [10] came out at 100%.
As for `Cc1nn(C)c(Nc2ccc(F)cc2F)c1-c1ccc(F)cc1Cl` [compound 2], the “Test B rating (disease control)” value in data set [1] is reported as 100%. Moreover, in data set [6], the “Test F rating (disease control)” value is 100%. Also, in [7], the “Test D rating (disease control)” value is listed as 98%. The “Test H rating (disease control)” value in data set [8] worked out at 100%. Also, the “Test A rating (disease control)” value in data set [9] is reported as 99%. Moreover, the “Test C rating (disease control)” value in [3] turned out to be 0%. Further, in data set [5], the “Test E rating (disease control)” value came out at 64%. Moreover, in data set [10], the “Test I rating (disease control)” value is 99%.
